Measurements published in patent US7144922B2, “Method and compound for the prophylaxis or treatment of an immunodeficiency condition, such as AIDS” (priority 2002, dated 2006).
Read-outs that look alike come from different tables or passages of the source.

Legend:
HIV-1 (RF) = assay: Antiviral drug assay in CEM-SS cells infected with HIV-1 RF (efficacy, tetrazolium reduction); format: cell-based; details: for Efficacy % CC (cell control): CEM-SS, HIV-1 (RF), day 6; for EC50: read-out: 50% effective concentration (EC50)
Protocol: Antiviral Drug Assay in CEM-SS Cells
(§1) This assay was used to test the effectiveness of anti-HIV drug monotherapy in the established T-cell line CEM-SS infected with HIV-1RF, HIV-1IIIb, HIV-2ROD, or other cytolytic variants of HIV. The antiviral agent and control (known antiviral drug—AZT) efficacy and cytotoxicity were determined by the metabolic reduction of the tetrazolium salt MTS (available from Promega).
(§2) The drugs were solubilized in DMSO (dimethyl sulfoxide). Three to ten vials of the antiviral agent and AZT were prepared and maintained at −70° C. CEM-SS cells were in logarithmic growth phase at the time of experimentation. Virus (HIV-1RF) stocks that past the necessary quality controls (killing effect on the type of cells used, limited variability, etc) were thawed and maintained on ice until required for addition.
(§3) Half-log serial dilutions of the antiviral agent or compound of the invention, H2K1001 (90i), were made in tissue culture media (RPMI 1640 without phenol red, supplemented with 10% heat inactivated fetal bovine serum, 1% L-Glutamine, 1% Pen/Strep and 50 ug/ml gentimycin). Virus, cell, drug and diluent (ethanol) controls were included for these tests. Virus was added after cells and drugs were mixed. Cell, drug, and virus containing cultures were incubated for six (6) days without additional feeding at which time the cultures were evaluated macrosopically and microscopically for cell toxicity, and the tetrazolium salt MTS was added for quantitation by the colorimetric determination of formazan production (optical density).
(§4) Drug efficacy and cytotoxicity effects were determined six days after infection by the metabolic reduction of the tetrazolium salt XTT to its' formazan by surviving cells and was quantitated by determination of optical density at 450 nm with background subtraction at 650 nm (Tables 1–4).
(§5) The drug plate analysis reports from this assay are provided below in Tables 1–4. Calculated endpoints (EC50, etc.) were determined using Cho and Cho Median Effect Equation (Daids Virology Manual for HIV Laboratories, Compiled by The Division of Aids, National Institute of Allergy and Infectious Diseases, National Institutes of Health and Collaborating Investigators, Version January 1997).

susceptible isolates = assay: AZT in studies of susceptible isolates in PBMCs; format: cell-based, HIV-1; details: typical value
Protocol: Testing in PBMCs was directed against a primary clinical isolate of HIV-1 P2, which is resistant to a variety of non-nucleoside inhibitors or HIV-1 reverse transcriptase and, in our hands, AZT. Testing AZT (control) against this virus, as expected, produced a relatively high EC50 of 3 uM. Typically AZT produces EC50s of less than 0.01 uM in studies of susceptible isolates in PBMCs.

[1] = test system: CEM-SS T-lymphoblastoid cells; assay: Toxicity testing in CEM-SS T-lymphoblastoid cells (tetrazolium reduction); format: cell-based; details: for Toxicity % CC (cell control): day 6; for IC50: read-out: 50% inhibitory concentration, IC50 (drug induced toxicity)
Protocol: as §1, §2, §3, §4, §5

[2] = test system: peripheral blood mononuclear cells (PBMC); assay: Toxicity testing in PBMC (tetrazolium MTS reduction); format: cell-based
Protocol: (§6) This assay was used to test the effectiveness of anti-HIV drug monotherapy in peripheral blood mononuclear cells (PBMC) infected with clinical isolates of HIV-1. Drug efficacy was determined by the production of supernatant HIV-1 p24. Drug-induced cytotoxicity was determined by the metabolic reduction of tetrazolium salts (MTS; Promega).
(§7) The antiviral drug or agent of the invention, H2K-1001 (90i), was solubilized. PBMCs, stimulated with PHA (phytohemagglutinin) for three days were employed throughout. Virus stocks (U.S. Clinical isolates) grown in PBMCs only, that past the necessary quality controls (i.e., replicate to high titer in PBMCs and meet the requirements as to genotype and phenotype) were rapidly thawed and maintained on ice until required for infection.
(§8) Half-log serial dilutions of test drugs and controls were prepared in tissue culture media (RPMI 1640 without phenol red, supplemented with 10% heat inactivated fetal bovine serum, 1% L-Glutamine, 1% Pen/Strep and 50 μg/ml gentamicin). Virus and cell controls were included on each test plate. Virus was added after cells and drugs were mixed. Cell, drug and virus containing cultures were incubated for seven (7) days with an interim feeding at day three or four.
(§9) Supernatants were sampled at seven days for p24 determination by antigen capture ELISA. Cytotoxicity was measured by the metabolic reduction of the tetrazolium salt according to the manufacturer's (Promega) recommendations.
(§10) The drug analysis reports from these studies are provided below in Tables 7–10. Efficacy (EC50) and viability (IC50) determinations were made using Cho and Cho Median Effect Equation, as noted above. Efficacy is expressed as the 50% effective concentration (EC50) and drug induced toxicity as the 50% inhibitory concentration (IC50).

HIV-1 (P2) = assay: Antiviral drug assay in PBMC infected with clinical isolate HIV-1 P2 (supernatant p24 ELISA); format: cell-based; details: for Efficacy % p24 Reduction: HIV-1 P2, day 7
Protocol: as §6, §7, §8, §9, §10

## Cc1cn([C@H]2C[C@H](N=[N+]=[N-])[C@@H](CO)O2)c(=O)[nH]c1=O [AZT, reference compound]
HIV-1 (RF); 0.001 uM
  Efficacy % CC (cell control): 42%
HIV-1 (RF); 0.003 uM
  Efficacy % CC (cell control): 44%
HIV-1 (RF); 0.01 uM
  Efficacy % CC (cell control): 90%
HIV-1 (RF); 0.03 uM
  Efficacy % CC (cell control): 83%
HIV-1 (RF); 0.1 uM
  Efficacy % CC (cell control): 85%
HIV-1 (RF); 0.3 uM
  Efficacy % CC (cell control): 82%
HIV-1 (RF); 1 uM
  Efficacy % CC (cell control): 90%
HIV-1 (RF); 3 uM
  Efficacy % CC (cell control): 82%
HIV-1 (RF); 10 uM
  Efficacy % CC (cell control): 87%
HIV-1 (RF); CEM-SS cells, HIV-1 RF
  EC50: ~3.5 nM
Susceptible isolates
  EC50: < 10 nM
[1]; 0.001 uM, CEM-SS
  Toxicity % CC (cell control): 93%
[1]; 0.003 uM, CEM-SS
  Toxicity % CC (cell control): 100%
[1]; 0.01 uM, CEM-SS
  Toxicity % CC (cell control): 109%
[1]; 0.03 uM, CEM-SS
  Toxicity % CC (cell control): 104%
[1]; 0.1 uM, CEM-SS
  Toxicity % CC (cell control): 102%
[1]; 0.3 uM, CEM-SS
  Toxicity % CC (cell control): 102%
[1]; 1 uM, CEM-SS
  Toxicity % CC (cell control): 96%
[1]; 3 uM, CEM-SS
  Toxicity % CC (cell control): 95%
[1]; 10 uM, CEM-SS
  Toxicity % CC (cell control): 95%
[1]; CEM-SS cells
  IC50: > 10 µM
[2]; 0.001 uM
  Toxicity % CC (cell control): 100%
[2]; 0.003 uM
  Toxicity % CC (cell control): 111%
[2]; 0.01 uM
  Toxicity % CC (cell control): 100%
[2]; 0.03 uM
  Toxicity % CC (cell control): 99%
[2]; 0.10 uM
  Toxicity % CC (cell control): 101%
[2]; 0.32 uM
  Toxicity % CC (cell control): 99%
[2]; 1 uM
  Toxicity % CC (cell control): 105%
[2]; 3 uM
  Toxicity % CC (cell control): 105%
[2]; 10 uM
  Toxicity % CC (cell control): 104%
HIV-1 (P2); 0.001 uM
  Efficacy % p24 Reduction: 12%
HIV-1 (P2); 0.003 uM
  Efficacy % p24 Reduction: 21%
HIV-1 (P2); 0.01 uM
  Efficacy % p24 Reduction: 14%
HIV-1 (P2); 0.03 uM
  Efficacy % p24 Reduction: 10%
HIV-1 (P2); 0.10 uM
  Efficacy % p24 Reduction: 20%
HIV-1 (P2); 0.32 uM
  Efficacy % p24 Reduction: 26%
HIV-1 (P2); 1 uM
  Efficacy % p24 Reduction: 22%
HIV-1 (P2); 3 uM
  Efficacy % p24 Reduction: 51%
HIV-1 (P2); 10 uM
  Efficacy % p24 Reduction: 77%
HIV-1 (P2); clinical isolate HIV-1 P2, read-out: EC50
  EC50: 3000 nM

## O=C(OCCOCCOC(=O)c1ccccc1)c1ccccc1 [H2K1001 (90i), diethylene glycol dibenzoate]
HIV-1 (RF); 0.01 ug/ml
  Efficacy % CC (cell control): 42%
HIV-1 (RF); 0.03 ug/ml
  Efficacy % CC (cell control): 80%
HIV-1 (RF); 0.1 ug/ml
  Efficacy % CC (cell control): 87%
HIV-1 (RF); 0.3 ug/ml
  Efficacy % CC (cell control): 83%
HIV-1 (RF); 1 ug/ml
  Efficacy % CC (cell control): 84%
HIV-1 (RF); 3 ug/ml
  Efficacy % CC (cell control): 84%
HIV-1 (RF); 10 ug/ml
  Efficacy % CC (cell control): 82%
HIV-1 (RF); 33 ug/ml
  Efficacy % CC (cell control): 86%
HIV-1 (RF); 100 ug/ml
  Efficacy % CC (cell control): 88%
HIV-1 (RF); CEM-SS cells, HIV-1 RF, listed as 90i
  50% effective concentration (EC50): approximately 0.020 ug/ml
HIV-1 (RF); Human immunodeficiency virus 1, CEM-SS, CEM-SS cells, HIV-1 RF
  EC50: 0.02 µg/mL
[1]; 0.01 ug/ml, CEM-SS
  Toxicity % CC (cell control): 100%
[1]; 0.03 ug/ml, CEM-SS
  Toxicity % CC (cell control): 103%
[1]; 0.1 ug/ml, CEM-SS
  Toxicity % CC (cell control): 104%
[1]; 0.3 ug/ml, CEM-SS
  Toxicity % CC (cell control): 100%
[1]; 1 ug/ml, CEM-SS
  Toxicity % CC (cell control): 100%
[1]; 3 ug/ml, CEM-SS
  Toxicity % CC (cell control): 99%
[1]; 10 ug/ml, CEM-SS
  Toxicity % CC (cell control): 93%
[1]; 33 ug/ml, CEM-SS
  Toxicity % CC (cell control): 94%
[1]; 100 ug/ml, CEM-SS
  Toxicity % CC (cell control): 106%
[1]; CEM-SS cells, listed as 90i
  50% inhibitory concentration, IC50 (drug induced toxicity): > 100 µg/mL
[1]; Homo sapiens, CEM-SS
  IC50: > 100 µg/mL
[2]; 0.01 ug/ml
  Toxicity % CC (cell control): 94%
[2]; 0.03 ug/ml
  Toxicity % CC (cell control): 103%
[2]; 0.10 ug/ml
  Toxicity % CC (cell control): 91%
[2]; 0.33 ug/ml
  Toxicity % CC (cell control): 94%
[2]; 1 ug/ml
  Toxicity % CC (cell control): 97%
[2]; 3 ug/ml (3.2 in Table 11)
  Toxicity % CC (cell control): 94%
[2]; 10 ug/ml
  Toxicity % CC (cell control): 100%
[2]; 32 ug/ml
  Toxicity % CC (cell control): 104%
[2]; 100 ug/ml
  Toxicity % CC (cell control): 111%
[2]; no unit printed, read-out: IC50 (drug induced toxicity)
  IC50: > 100 µg/mL
[2]; read-out: 50% inhibitory concentration, IC50 (drug induced toxicity)
  IC50: > 100 µg/mL
HIV-1 (P2); 0.01 ug/ml
  Efficacy % p24 Reduction: 23%
HIV-1 (P2); 0.03 ug/ml
  Efficacy % p24 Reduction: 25%
HIV-1 (P2); 0.10 ug/ml
  Efficacy % p24 Reduction: 36%
HIV-1 (P2); 0.33 ug/ml
  Efficacy % p24 Reduction: 36%
HIV-1 (P2); 1 ug/ml
  Efficacy % p24 Reduction: 53%
HIV-1 (P2); 3 ug/ml (3.2 in Table 11)
  Efficacy % p24 Reduction: 87%
HIV-1 (P2); 10 ug/ml
  Efficacy % p24 Reduction: 95%
HIV-1 (P2); 32 ug/ml
  Efficacy % p24 Reduction: 94%
HIV-1 (P2); 100 ug/ml
  Efficacy % p24 Reduction: 93%
HIV-1 (P2); Human immunodeficiency virus 1, PBMC, clinical isolate HIV-1 P2, read-out: 50% effective concentration (EC50)
  EC50: 0.8 µg/mL
HIV-1 (P2); clinical isolate HIV-1 P2, listed as 90i
  50% effective concentration (EC50): approximately 0.8 ug/ml
